Measurements taken from ChEMBL document CHEMBL5352403, “Monoamine oxidase inhibitors: A concise review with special emphasis on structure activity relationship studies” (Eur J Med Chem, 2022).
Each block holds one compound with its values, some of them ahead of it.

Tests used:
[1] = biological target: T1, Amine oxidase [flavin-containing] A (Homo sapiens, UniProt P21397); assay: Inhibition of human MAO-A
T1 sequence (P21397 whole entry): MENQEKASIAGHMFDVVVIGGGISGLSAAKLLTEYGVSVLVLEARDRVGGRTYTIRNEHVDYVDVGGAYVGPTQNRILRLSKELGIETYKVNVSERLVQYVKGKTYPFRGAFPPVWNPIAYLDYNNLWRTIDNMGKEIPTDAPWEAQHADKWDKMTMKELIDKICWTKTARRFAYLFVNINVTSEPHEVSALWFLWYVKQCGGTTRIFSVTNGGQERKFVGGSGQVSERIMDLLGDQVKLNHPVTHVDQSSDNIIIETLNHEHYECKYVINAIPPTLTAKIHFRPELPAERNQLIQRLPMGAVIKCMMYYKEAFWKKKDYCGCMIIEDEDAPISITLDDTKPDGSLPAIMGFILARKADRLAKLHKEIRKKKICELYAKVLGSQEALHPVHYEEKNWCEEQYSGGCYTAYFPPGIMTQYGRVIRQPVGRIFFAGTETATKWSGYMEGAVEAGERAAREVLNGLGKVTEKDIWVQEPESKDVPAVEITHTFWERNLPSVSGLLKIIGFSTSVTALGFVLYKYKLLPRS

[2] = biological target: T2, Amine oxidase [flavin-containing] B (Homo sapiens, UniProt P27338); assay: Inhibition of recombinant human MAO-B using p-tyramine as substrate incubated for 15 mins by Amplex Red reagent and horseradish peroxidase based fluorometric analysis
T2 sequence (P27338 whole entry): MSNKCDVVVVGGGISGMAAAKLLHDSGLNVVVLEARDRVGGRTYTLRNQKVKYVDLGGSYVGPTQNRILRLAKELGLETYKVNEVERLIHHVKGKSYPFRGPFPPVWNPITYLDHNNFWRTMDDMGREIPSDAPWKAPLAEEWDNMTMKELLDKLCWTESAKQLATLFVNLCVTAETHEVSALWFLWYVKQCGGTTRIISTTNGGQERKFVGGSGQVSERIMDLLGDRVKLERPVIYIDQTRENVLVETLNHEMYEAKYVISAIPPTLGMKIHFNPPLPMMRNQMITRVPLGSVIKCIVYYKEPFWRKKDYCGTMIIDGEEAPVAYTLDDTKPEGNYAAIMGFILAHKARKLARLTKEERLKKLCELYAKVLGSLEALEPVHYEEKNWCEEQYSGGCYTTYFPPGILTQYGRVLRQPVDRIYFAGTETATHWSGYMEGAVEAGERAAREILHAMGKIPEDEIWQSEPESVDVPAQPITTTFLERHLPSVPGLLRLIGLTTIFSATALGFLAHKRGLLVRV

[3] = biological target: T2, Amine oxidase [flavin-containing] B; assay: Reversible inhibition of recombinant human MAO-B incubated for 30 mins by dilution assay
[4] = biological target: T2, Amine oxidase [flavin-containing] B; assay: Inhibition of recombinant human MAO-B using benzylamine as substrate incubated for 30 mins by spectrophotometric assay
[5] = biological target: T1, Amine oxidase [flavin-containing] A; assay: Competitive inhibition of recombinant human MAO-A using tyramine hydrochloride as substrate by Ampliflu red reagent and horseradish peroxidase based fluorescence microplate reader analysis
[6] = biological target: T2, Amine oxidase [flavin-containing] B; assay: Inhibition of recombinant human MAO-B expressed in baculovirus infected BTI-TN-5B1-4 insect cells using p-tyramine as substrate incubated for 15 mins by Amplex Red reagent and horseradish peroxidase based fluorometric analysis
[7] = biological target: T3, Amine oxidase [flavin-containing] B (Rattus norvegicus, UniProt P19643); assay: Inhibition of rat brain mitochondria MAO-B using benzylamine as substrate incubated for 30 mins by fluorescence microplate reader analysis
T3 sequence (P19643 whole entry): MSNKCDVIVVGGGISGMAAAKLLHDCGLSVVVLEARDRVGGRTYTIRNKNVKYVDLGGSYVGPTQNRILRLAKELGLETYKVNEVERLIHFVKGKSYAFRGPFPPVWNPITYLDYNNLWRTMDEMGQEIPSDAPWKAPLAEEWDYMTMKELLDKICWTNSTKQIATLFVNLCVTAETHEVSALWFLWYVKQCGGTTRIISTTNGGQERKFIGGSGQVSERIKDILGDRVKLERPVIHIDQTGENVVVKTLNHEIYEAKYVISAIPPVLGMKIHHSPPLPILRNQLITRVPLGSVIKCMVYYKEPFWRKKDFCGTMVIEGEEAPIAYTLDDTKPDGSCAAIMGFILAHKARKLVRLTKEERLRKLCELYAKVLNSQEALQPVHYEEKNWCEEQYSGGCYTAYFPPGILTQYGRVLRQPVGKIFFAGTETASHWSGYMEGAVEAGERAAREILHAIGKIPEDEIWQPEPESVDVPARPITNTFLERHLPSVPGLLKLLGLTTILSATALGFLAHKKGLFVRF

[8] = biological target: T2, Amine oxidase [flavin-containing] B; assay: Inhibition of recombinant human MAO-B using p-tyramine as substrate incubated for 60 mins by Amplex Red reagent and horseradish peroxidase based fluorescence microplate reader analysis
[9] = biological target: T1, Amine oxidase [flavin-containing] A; assay: Inhibition of recombinant human MAO-A using p-tyramine as substrate incubated for 15 mins by Amplex Red reagent and horseradish peroxidase based fluorometric analysis
[10] = biological target: T2, Amine oxidase [flavin-containing] B; assay: Inhibition of recombinant human MAO-B using kynuramine as substrate assessed as inhibition constant incubated for 20 mins by spectrophotometric assay
[11] = biological target: T2, Amine oxidase [flavin-containing] B; assay: Inhibition of recombinant human MAO-B using kynuramine as substrate incubated for 30 mins by spectrophotometric assay
[12] = species: Homo sapiens; assay: Selectivity index, ratio of Ki for inhibition of human MAO-B to Ki for inhibition of human MAO-A
[13] = biological target: T2, Amine oxidase [flavin-containing] B; assay: Inhibition of human MAO-B using p-tyramine as substrate incubated for 15 mins by horseradish peroxidase based fluorescence microplate reader analysis
[14] = biological target: T3, Amine oxidase [flavin-containing] B; assay: Inhibition of rat brain mitochondria MAO-B using p-tyramine as substrate incubated for 15 mins by Amplex Red reagent and horseradish peroxidase based fluorometric analysis
[15] = species: Homo sapiens; assay: Selectivity index, ratio of IC50 for inhibition of recombinant human MAO-A to IC50 for inhibition of recombinant human MAO-B
[16] = biological target: T1, Amine oxidase [flavin-containing] A; assay: Inhibition of recombinant human MAO-A using tyramine as substrate incubated for 60 mins by Ampliflu red reagent and horseradish peroxidase based fluorometric analysis
[17] = Inhibition of goat liver MAO-B using p-tyramine as substrate incubated for 60 mins by spectrophotometric assay; assay type: tissue-based, Capra hircus
[18] = biological target: T2, Amine oxidase [flavin-containing] B; assay: Inhibition of MAO-B (unknown origin) using p-tyramine as substrate incubated for 60 mins by Ampliflu red reagent and horseradish peroxidase based fluorometric analysis
[19] = biological target: T1, Amine oxidase [flavin-containing] A; assay: Inhibition of recombinant human MAO-A assessed as inhibition constant incubated for 60 mins by Amplex Red reagent and horseradish peroxidase based fluorometric analysis
[20] = biological target: T2, Amine oxidase [flavin-containing] B; assay: Inhibition of recombinant human MAO-B using p-tyramine as substrate incubated for 1 hr by Amplex Red reagent and horseradish peroxidase based fluorescence microplate reader analysis
[21] = biological target: T2, Amine oxidase [flavin-containing] B; assay: Inhibition of recombinant human MAO-B using benzylamine as substrate incubated for 15 mins by spectrophotometric assay
[22] = biological target: T1, Amine oxidase [flavin-containing] A; assay: Inhibition of recombinant human MAO-A using kynuramine as substrate incubated for 30 mins by fluorimetric analysis
[23] = biological target: T2, Amine oxidase [flavin-containing] B; assay: Inhibition of recombinant human MAO-B using kynuramine as substrate incubated for 30 mins by fluorimetric analysis

IC50 [1]: 0.107 µM
Compound: COCCNc1nnc(SCC(=O)Nc2nc3ccc([N+](=O)[O-])cc3s2)s1

IC50 [1]: 0.128 µM
Compound: CCCCNc1nnc(SCC(=O)Nc2nc3ccc([N+](=O)[O-])cc3s2)s1

IC50 [2]: 0.00037 µM
IC50 [3]: 0.004 µM
Compound: O=C1CCc2ccc(OCc3ccccc3F)cc2O1

IC50 [4]: 0.002 µM
IC50 [5]: 0.095 µM
Compound: O=C(/C=C/c1ccc(F)cc1)c1ccc2c(c1)OCCO2

IC50 [6]: 0.024 µM
Compound: COc1cccc(-c2cc3cc([N+](=O)[O-])ccc3o2)c1

IC50 [7]: 0.212 µM
Compound: C/C(=N\NC(=O)Nc1ncc([N+](=O)[O-])s1)c1ccc(Br)cc1

IC50 [8]: 0.053 µM
Compound: CCOc1ccccc1N1CCN(c2ccc(-c3nc4cc(C)ccc4[nH]3)cc2)CC1

IC50 [9]: 55.5 µM
Compound: O=c1oc2ccc(Cl)cc2c(O)c1-c1ccccc1O

Ki [10]: 0.28 µM
Compound: CC1=NN(C(=O)CN2CCNCC2)C(c2cc(Br)cc(Br)c2O)C1 (centres undefined)

IC50 [11]: 0.01 µM
Compound: Cc1ncc(/C=C/c2ccc(O)cc2)c2c1OC(C)(C)OC2

Ratio Ki [12]: 0.55
Compound: O=C1/C(=C/c2c3ccccc3cc3ccccc23)Oc2ccccc21

IC50 [11]: 0.02 µM
Compound: Cc1ncc(/C=C/c2ccc(N3CCN(C)CC3)cc2)c2c1OC(C)(C)OC2

IC50 [4]: 0.002 µM
Compound: N/N=C/c1ccc(Cl)cc1

IC50 [13]: 0.68 µM
IC50 [14]: 0.005 µM
Compound: Cc1cc(=O)c(O)c(CO)n1CCCn1cc(COc2cc3ccccc3oc2=O)nn1

IC50 [5]: 0.141 µM
Compound: Clc1ccc(-c2csc(N/N=C(/CSc3nc4ccccc4s3)c3ccccc3)n2)c(Cl)c1

Ratio IC50 [15]: 0.13
Compound: O=C(c1ccc([N+](=O)[O-])cc1)N1CCN(C(c2ccccc2)c2ccccc2)CC1

IC50 [16]: 0.028 µM
Compound: CN1CCN(c2ccc(/C=N/Nc3ccccc3)cc2)CC1

IC50 [17]: 0.34 µM
IC50 [6]: 0.024 µM
Compound: C/N=C/c1cn(-c2ccccc2)nc1-c1ccc(F)cc1

IC50 [18]: 0.049 µM
Compound: O=C(/C=C(O)/C=C/c1ccccc1)c1ccccc1O

Ki [19]: 0.16 µM
Compound: C[C@H]1OC(=O)N(c2ccccc2)C1=O

IC50 [17]: 0.38 µM
Compound: OCC/N=C/c1cn(-c2ccccc2)nc1-c1ccc(F)cc1

IC50 [20]: 0.29 µM
IC50 [8]: 0.053 µM
Compound: COc1ccc(C(=O)/C=C/c2ccc(N(C)C)cc2)cc1

IC50 [13]: 0.86 µM
Compound: Cc1ccc2oc(=O)c(-c3ccc([N+](=O)[O-])cc3)cc2c1

IC50 [17]: 0.34 µM
Compound: CC1CCCCN1c1ccc(/C=N/Nc2ccccc2)cc1 (centres undefined)

IC50 [21]: 0.65 µM
Compound: CSc1ccc(C(=O)/C=C/c2cccc3c2OCO3)cc1

IC50 [22]: 17 µM
IC50 [23]: 2.95 µM
Compound: O=C(CSc1nc2cc(Cl)ccc2s1)N(Cc1cccc([N+](=O)[O-])c1)c1ccc(F)cc1

IC50 [16]: 0.028 µM
Compound: Cc1cc(=O)c(O)c(CO)n1CCCn1cc(COc2ccc3ccc(=O)oc3c2)nn1

IC50 [17]: 0.6 µM
Compound: OCC/N=C/c1cn(-c2ccccc2)nc1-c1ccc(Cl)cc1
